{"source": "patent US9775839B2", "about": "“2-pyrazine carboxamides as spleen tyrosine kinase inhibitors” (Merck Sharp & Dohme Corp., priority 2014, dated 2017)", "origin": "cited, not measured here", "key": {"[1]": {"test_system": "PGD2", "settings": "dosed intranasally, allergic rhinitis, phase I/II study"}, "[2]": {"settings": "allergic rhinitis, phase II clinical trial"}}, "data": [{"compound": "Oc1cccc(Nc2ncc(F)c(Nc3cccc(O)c3)n2)c1", "note": "[Example R112]", "values": [{"measurement": "change in PGD2", "setting": "[1]", "result": "statistically significant decrease"}, {"measurement": "clinical safety", "setting": "[1]", "result": "safe across a range of indicators"}, {"measurement": "efficacy versus placebo", "setting": "[2]", "result": "lack of efficacy"}]}]}
